SMILES strings stand for the structures.

The target in this experiment is T1, human orexin type 2 receptor (Homo sapiens, UniProt O43614).
T1 construct: expressed in transfected cells
T1 sequence (O43614 1-444): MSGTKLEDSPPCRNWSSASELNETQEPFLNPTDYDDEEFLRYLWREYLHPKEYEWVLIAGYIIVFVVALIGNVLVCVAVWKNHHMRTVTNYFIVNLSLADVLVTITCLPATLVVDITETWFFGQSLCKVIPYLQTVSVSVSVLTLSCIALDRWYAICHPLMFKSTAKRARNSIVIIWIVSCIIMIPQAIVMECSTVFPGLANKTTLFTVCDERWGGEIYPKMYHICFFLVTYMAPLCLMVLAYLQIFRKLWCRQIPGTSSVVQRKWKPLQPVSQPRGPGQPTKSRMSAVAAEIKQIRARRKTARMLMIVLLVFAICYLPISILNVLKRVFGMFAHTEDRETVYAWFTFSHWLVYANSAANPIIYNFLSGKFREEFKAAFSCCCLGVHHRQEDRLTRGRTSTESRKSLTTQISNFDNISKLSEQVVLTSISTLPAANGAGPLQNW
Kind of experiment: Measurement of orexin type 2 receptor agonist activity (calcium fluorescence, CHO cells forcibly expressing human OX2 receptor). Type of experiment: cell-based. As to conditions: compound at 3 μM, DMSO = 0%, orexin A (human) 10 nM = 100%. From the text:
To obtain a cell clone stably expressing human orexin type 2 receptor, human orexin type 2 receptor cDNA was inserted into pcDNA3.1(+) plasmid vector (Invitrogen), and a plasmid DNA for expression of human orexin type 2 receptor (pcDNA3.1(+)/hOX2R) was cloned. The plasmid DNA was introduced into CHO-K1 cell by an electroporation method, and human orexin type 2 receptor-expressing clonal cells were obtained by limiting dilution method using G418 drug resistance as a selection marker.
CHO cells forcibly expressing human OX2 receptor were seeded in each well of 384 well black transparent bottom plate (BD Falcon) at 10,000 cells/well, and cultured for one day in a 5% CO2 incubator at 37° C. After removal of the medium in the cell plate, assay buffer A containing a calcium indicator (HBSS (Thermo Fisher Scientific), 20 mM HEPES (Thermo Fisher Scientific), 0.1% BSA (Sigma-Aldrich), 2.5 μg/mL Fluo-4 AM (DOJINDO Chemical), 0.08% Pluronic F127 (DOJINDO Chemical), 1.25 mM probenecid (DOJINDO Chemical)) was added thereto at 30 μL/well. The plate was stood for 30 min in a 5% CO2 incubator at 37° C., and further stood at room temperature for 30 min. A test compound prepared by diluting with assay buffer B (HBSS, 20 mM HEPES, 0.1% BSA) was added thereto at 10 μL/well, and the fluorescence value was measured by FDSSμCELL (Hamamatsu Photonics K.K.) every one sec for 1 min, and thereafter every two sec for 1 min 40 sec. The activity (%) of the test compound was calculated assuming that variation in the fluorescence value when DMSO was added instead of the test compound was 0%, and variation in the fluorescence value when orexin A (human) (PEPTIDE INSTITUTE, INC.) was added at the final concentration of 10 nM was 100%.
As for `CCS(=O)(=O)NC1CCc2ccc(C)c(=O)n2C1COC1CCC(C(C)C)CC1` (racemic) [Example 13, rac-N-[(3S,4R)-7-methyl-6-oxo-4-({[(1s,4S)-4-(propan-2-yl)cyclohexyl]oxy}methyl)-1,3,4,6-tetrahydro-2H-quinolizin-3-yl]ethanesulfonamide], the “OX2R agonist activity (3 μM, %)” value is 96%.

As to `CCC1CCC(OCC2C(NS(C)(=O)=O)CCc3c(C)cc(C)c(=O)n32)CC1` (racemic) [Example 48, rac-N-[(3S,4R)-4-({[(1s,4S)-4-ethylcyclohexyl]oxy}methyl)-7,9-dimethyl-6-oxo-1,3,4,6-tetrahydro-2H-quinolizin-3-yl]methanesulfonamide], the “OX2R agonist activity (3 μM, %)” value is on record as 95%.

`COC1CCC(OCC2C(NS(C)(=O)=O)CCc3ccc(C)c(=O)n32)CC1` (racemic) [Example 4, N-[(3SR,4RS)-4-{[(4-methoxycyclohexyl)oxy]methyl}-7-methyl-6-oxo-1,3,4,6-tetrahydro-2H-quinolizin-3-yl]methanesulfonamide]: the “OX2R agonist activity (3 μM, %)” value was found to be 58%.

`Cc1ccc2n(c1=O)C(COC1CCC(C)CC1)C(NS(=O)(=O)N(C)C)CC2` (racemic) [Example 26, rac-N,N-dimethyl-N′-[(3S,4R)-7-methyl-4-({[(1s,4S)-4-methylcyclohexyl]oxy}methyl)-6-oxo-1,3,4,6-tetrahydro-2H-quinolizin-3-yl]sulfuric diamide]: the “OX2R agonist activity (3 μM, %)” value came to 86%.

Turning to `CCS(=O)(=O)NC1CCc2ccc(C)c(=O)n2C1COC1CCC(C)CC1` (racemic) [Example 7, rac-N-[(3S,4R)-7-methyl-4-({[(1s,4S)-4-methylcyclohexyl]oxy}methyl)-6-oxo-1,3,4,6-tetrahydro-2H-quinolizin-3-yl]ethanesulfonamide], the “OX2R agonist activity (3 μM, %)” value was 85%.

`Cc1ccc2n(c1=O)C(COC1CCC(c3ccccn3)CC1)C(NS(C)(=O)=O)CC2` (racemic) [Example 116, rac-N-[(3S,4R)-7-methyl-6-oxo-4-({[(1s,4S)-4-(pyridin-2-yl)cyclohexyl]oxy)methyl)-1,3,4,6-tetrahydro-2H-quinolizin-3-yl]methanesulfonamide]: the “OX2R agonist activity (3 μM, %)” value is recorded as 99%.

As to `CCC(O)C1CCC(OCC2C(NS(C)(=O)=O)CCc3ccc(C)c(=O)n32)CC1` (racemic) [Example 58, N-[(3SR,4RS)-4-({[4-(1-hydroxypropyl)cyclohexyl]oxy}methyl)-7-methyl-6-oxo-1,3,4,6-tetrahydro-2H-quinolizin-3-yl]methanesulfonamide], the “OX2R agonist activity (3 μM, %)” value is 95%.

Take `Cc1ccc2n(c1=O)C(COC1CCC(c3ccc(F)cc3)CC1)C(NS(C)(=O)=O)CC2` (racemic) [Example 40, rac-N-[(3S,4R)-4-({[(1s,4S)-4-(4-fluorophenyl)cyclohexyl]oxy}methyl)-7-methyl-6-oxo-1,3,4,6-tetrahydro-2H-quinolizin-3-yl]methanesulfonamide]: the “OX2R agonist activity (3 μM, %)” value turned out to be 89%.

On to `CCC1CCC(OCC2C(NS(C)(=O)=O)CCc3ccc(C4CC4)c(=O)n32)CC1` [Example 66, rel-N-[(3S,4R)-7-cyclopropyl-4-({[(1s,4S)-4-ethylcyclohexyl]oxy}methyl)-6-oxo-1,3,4,6-tetrahydro-2H-quinolizin-3-yl]methanesulfonamide], for which the “OX2R agonist activity (3 μM, %)” value worked out at 96%.

As for `Cc1ccc2n(c1=O)C(COC1CCC(c3c(F)cccc3F)CC1)C(NS(C)(=O)=O)CC2` [Example 89, rel-N-[(3S,4R)-4-({[(1s,4S)-4-(2,6-difluorophenyl)cyclohexyl]oxy)methyl)-7-methyl-6-oxo-1,3,4,6-tetrahydro-2H-quinolizin-3-yl]methanesulfonamide], the “OX2R agonist activity (3 μM, %)” value is reported as 89%.

For the compound `Cc1ccc2n(c1=O)C(COC1CCC(CF)CC1)C(NS(C)(=O)=O)CC2` (racemic) [Example 86, rac-N-[(3S,4R)-4-({[(1s,4S)-4-(fluoromethyl)cyclohexyl]oxy}methyl)-7-methyl-6-oxo-1,3,4,6-tetrahydro-2H-quinolizin-3-yl]methanesulfonamide], the “OX2R agonist activity (3 μM, %)” value worked out at 89%.

The values are drawn from US12448377B2, “Heterocyclic compound” (Takeda Pharmaceutical Company Limited, priority 2019, dated 2025).
